Key:
Oryctolagus cuniculus [1] = test: Toxicity in New Zealand white rabbit myocardial ischemia/reperfusion injury model assessed as heart rate at 1.79 umol/kg, administered as single bolus dose at 180 mins of reperfusion (reference value: 254 +/- 11 bpm); format: organism-based; conditions: in vivo, 3 h
Oryctolagus cuniculus [2] = test: Cardioprotective activity in New Zealand white rabbit myocardial ischemia/reperfusion injury model assessed as reduction in infarct size at 1.79 umol/kg, administered as single bolus dose at 20th min of sustained ischemia by TTC staining (reference value: 47.9 +/- 0.7 %); format: functional, Myocardium; parameters: scale not given: the % may be the effect or the level left
Oryctolagus cuniculus [3] = test: Toxicity in New Zealand white rabbit myocardial ischemia/reperfusion injury model assessed as mean blood pressure at 1.79 umol/kg, administered as single bolus dose at 20 mins of sustained ischemia in presence of non selective adenosine receptor inhibitor SPT (reference value: 64 +/- 5 mmHg); format: organism-based; conditions: in vivo, iv
Oryctolagus cuniculus [4] = test: Cardioprotective activity in New Zealand white rabbit myocardial ischemia/reperfusion injury model assessed as reduction in infarct size at 1.79 umol/kg, administered as single bolus dose at 20th min of sustained ischemia by TTC staining in presence of NAHS (reference value: 47.9 +/- 0.7 %); format: functional, Myocardium; parameters: scale not given: the % may be the effect or the level left
Oryctolagus cuniculus [5] = test: Toxicity in New Zealand white rabbit myocardial ischemia/reperfusion injury model assessed as heart rate at 1.79 umol/kg, administered as single bolus dose at 180 mins of reperfusion in presence of non selective adenosine receptor inhibitor SPT (reference value: 254 +/- 11 bpm); format: organism-based; conditions: in vivo, 3 h
Oryctolagus cuniculus [6] = test: Toxicity in New Zealand white rabbit myocardial ischemia/reperfusion injury model assessed as heart rate at 1.79 umol/kg, administered as single bolus dose at 180 mins of reperfusion in presence of NaHS (reference value: 254 +/- 11 bpm); format: organism-based; conditions: in vivo, iv, 3 h
Oryctolagus cuniculus [7] = test: Toxicity in New Zealand white rabbit myocardial ischemia/reperfusion injury model assessed as heart rate at 1.79 umol/kg, administered as single bolus dose at 20 mins of sustained ischemia (reference value: 276 +/- 9 bpm); format: organism-based; conditions: in vivo
Oryctolagus cuniculus [8] = test: Toxicity in New Zealand white rabbit myocardial ischemia/reperfusion injury model assessed as heart rate at 1.79 umol/kg, administered as single bolus dose at 20 mins of sustained ischemia in presence of non selective adenosine receptor inhibitor SPT (reference value: 276 +/- 9 bpm); format: organism-based; conditions: in vivo
Oryctolagus cuniculus [9] = test: Toxicity in New Zealand white rabbit assessed as baseline mean blood pressure at 1.79 umol/kg, administered as single bolus dose (reference value: 74 +/- 5 mmHg); format: organism-based; conditions: in vivo
Oryctolagus cuniculus [10] = test: Toxicity in New Zealand white rabbit assessed as baseline heart rate at 1.79 umol/kg, administered as single bolus dose in presence of non selective adenosine receptor inhibitor SPT (reference value: 269 +/- 10 bpm); format: organism-based; conditions: in vivo
Oryctolagus cuniculus [11] = test: Toxicity in New Zealand white rabbit myocardial ischemia/reperfusion injury model assessed as heart rate at 1.79 umol/kg, administered as single bolus dose at 20 mins of sustained ischemia in presence of NaHS (reference value: 276 +/- 9 bpm); format: organism-based; conditions: in vivo
Oryctolagus cuniculus [12] = test: Toxicity in New Zealand white rabbit assessed as baseline heart rate at 1.79 umol/kg, administered as single bolus dose (reference value: 269 +/- 10 bpm); format: organism-based; conditions: in vivo
Oryctolagus cuniculus [13] = test: Toxicity in New Zealand white rabbit assessed as heart weight at 1.79 umol/kg, administered as single bolus dose (reference value: 7.2 +/- 0.3 g); format: organism-based; conditions: in vivo
Oryctolagus cuniculus [14] = test: Toxicity in New Zealand white rabbit myocardial ischemia/reperfusion injury model assessed as mean blood pressure at 1.79 umol/kg, administered as single bolus dose at 180 mins of reperfusion in presence of SPT (reference value: 60 +/- 4 mmHg); format: organism-based; conditions: in vivo, 3 h
Oryctolagus cuniculus [15] = test: Toxicity in New Zealand white rabbit assessed as baseline mean blood pressure at 1.79 umol/kg, administered as single bolus dose in presence of SPT (reference value: 74 +/- 5 mmHg); format: organism-based; conditions: in vivo
Oryctolagus cuniculus [16] = test: Toxicity in New Zealand white rabbit assessed as heart weight at 1.79 umol/kg, administered as single bolus dose in presence of non selective adenosine receptor inhibitor SPT (reference value: 7.2 +/- 0.3 g); format: organism-based; conditions: in vivo
Oryctolagus cuniculus [17] = test: Toxicity in New Zealand white rabbit assessed as baseline mean blood pressure at 1.79 umol/kg, administered as single bolus dose in presence of NaHS (reference value: 74 +/- 5 mmHg); format: organism-based; conditions: in vivo
Oryctolagus cuniculus [18] = test: Toxicity in New Zealand white rabbit myocardial ischemia/reperfusion injury model assessed as mean blood pressure at 1.79 umol/kg, administered as single bolus dose at 180 mins of reperfusion in presence of NaHS (reference value: 60 +/- 4 mmHg); format: organism-based; conditions: in vivo, iv, 3 h
[19] = Induction of H2S release in potassium phosphate buffer at 100 uM at pH 7.4 by Amperometric method; format: physicochemical; conditions: pH 7.4, 100 µM
Oryctolagus cuniculus [20] = test: Toxicity in New Zealand white rabbit myocardial ischemia/reperfusion injury model assessed as mean blood pressure at 1.79 umol/kg, administered as single bolus dose at 20 mins of sustained ischemia (reference value: 64 +/- 5 mmHg); format: organism-based; conditions: in vivo
Oryctolagus cuniculus [21] = test: Cardioprotective activity in New Zealand white rabbit myocardial ischemia/reperfusion injury model assessed as reduction in infarct size at 1.79 umol/kg, administered as single bolus dose at 20 mins before sustained ischemia by TTC staining in presence of non selective adenosine receptor inhibitor SPT (reference value: 47.9 +/- 0.7 %); format: functional, Myocardium; parameters: scale not given: the % may be the effect or the level left
Oryctolagus cuniculus [22] = test: Toxicity in New Zealand white rabbit assessed as baseline heart rate at 1.79 umol/kg, administered as single bolus dose in presence of NaHS (reference value: 269 +/- 10 bpm); format: organism-based; conditions: in vivo
Oryctolagus cuniculus [23] = test: Toxicity in New Zealand white rabbit myocardial ischemia/reperfusion injury model assessed as mean blood pressure at 1.79 umol/kg, administered as single bolus dose at 20 mins of sustained ischemia in presence of NaHS (reference value: 64 +/- 5 mmHg); format: organism-based; conditions: in vivo, iv
Oryctolagus cuniculus [24] = test: Toxicity in New Zealand white rabbit myocardial ischemia/reperfusion injury model assessed as mean blood pressure at 1.79 umol/kg, administered as single bolus dose at 180 mins of reperfusion (reference value: 60 +/- 4 mmHg); format: organism-based; conditions: in vivo, iv, 3 h
Oryctolagus cuniculus [25] = test: Toxicity in New Zealand white rabbit assessed as heart weight at 1.79 umol/kg, administered as single bolus dose in presence of NaHS (reference value: 7.2 +/- 0.3 g); format: organism-based; conditions: in vivo

For `NC(=O)c1ccc(OCCCCn2cnc3c(N)ncnc32)cc1`, the Activity (Oryctolagus cuniculus [1]) was 262 bpm, the Activity (Oryctolagus cuniculus [2]) was 26.6% and the Activity (Oryctolagus cuniculus [3]) was 76 mmHg. The Activity (Oryctolagus cuniculus [4]) was 22.3%, the Activity (Oryctolagus cuniculus [5]) was 268 bpm and the Activity (Oryctolagus cuniculus [6]) was 252 bpm. It also gave an Activity (Oryctolagus cuniculus [7]) of 258 bpm, an Activity (Oryctolagus cuniculus [8]) of 259 bpm and an Activity (Oryctolagus cuniculus [9]) of 77 mmHg. For the same compound, the Activity (Oryctolagus cuniculus [10]) was 278 bpm, the Activity (Oryctolagus cuniculus [11]) was 272 bpm and the Activity (Oryctolagus cuniculus [12]) was 260 bpm. It also gave an Activity (Oryctolagus cuniculus [13]) of 7.3 g, an Activity (Oryctolagus cuniculus [14]) of 72 mmHg and an Activity (Oryctolagus cuniculus [15]) of 82 mmHg. It also gave an Activity (Oryctolagus cuniculus [16]) of 7.1 g, an Activity (Oryctolagus cuniculus [17]) of 79 mmHg and an Activity (Oryctolagus cuniculus [18]) of 67 mmHg. The Activity [19] was “Not Active”, the Activity (Oryctolagus cuniculus [20]) was 75 mmHg and the Activity (Oryctolagus cuniculus [21]) was 41.8%. The Activity (Oryctolagus cuniculus [22]) was 268 bpm, the Activity (Oryctolagus cuniculus [23]) was 65 mmHg and the Activity (Oryctolagus cuniculus [24]) was 71 mmHg. The Activity (Oryctolagus cuniculus [25]) was 7.4 g.
